Like-named read-outs stand apart in the source and are kept apart here.
How the values were obtained:
BoNT/A LC WT = BoNT/A LC WT (Clostridium botulinum, UniProt P0DPI0); assay type: binding
[1] = tested on: BoNT/A1 cleavage of SNAP-25 in hiPSC-derived motor neurons; assay: cells; assay type: cell-based, human
BoNT/A LC [2] = molecular target: T1, BoNT/A LC (Clostridium botulinum, UniProt P0DPI0); assay: biochemical; assay type: biochemical
BoNT/A LC [3] = molecular target: T1, BoNT/A LC; assay: biochemical; conditions: read-out: inhibited BoNT/A LC activity
BoNT/A LC [4] = molecular target: T1, BoNT/A LC; assay: biochemical

T1 sequence (P0DPI0 2-448 limits assumed): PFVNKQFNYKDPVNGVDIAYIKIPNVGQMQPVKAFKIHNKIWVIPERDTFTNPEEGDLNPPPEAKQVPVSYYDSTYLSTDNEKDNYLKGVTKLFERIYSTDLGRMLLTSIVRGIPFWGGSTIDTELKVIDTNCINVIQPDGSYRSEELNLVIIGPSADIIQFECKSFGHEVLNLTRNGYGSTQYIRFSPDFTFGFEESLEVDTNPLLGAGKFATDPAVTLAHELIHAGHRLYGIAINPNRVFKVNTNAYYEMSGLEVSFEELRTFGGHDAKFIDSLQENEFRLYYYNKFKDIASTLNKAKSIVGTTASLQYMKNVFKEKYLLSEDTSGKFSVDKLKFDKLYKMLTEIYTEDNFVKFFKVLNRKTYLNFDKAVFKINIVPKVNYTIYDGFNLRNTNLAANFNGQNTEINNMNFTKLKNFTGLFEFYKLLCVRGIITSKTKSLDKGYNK
BoNT/A LC WT, sequence (P0DPI0 2-448 limits assumed): as above

O=c1cc(CNCc2ccccc2)nc2c(O)cccn12 [Compound 2, 2-((Benzylamino)methyl)-9-hydroxy-4H-pyrido [1,2-a]pyrimidin-4-one]
covalent adduct formation by HRMS (in words) (BoNT/A LC WT): Neither of the reversible compounds 2 and 27 showed any change in mass
inhibition of SNAP-25 cleavage (in words) [1]: neither 2 nor 18 inhibited the cleavage of SNAP-25
IC50 (BoNT/A LC [2]): 900 ± 200 nM
fold more potent than initial lead 1 (BoNT/A LC [2]): approximately seven-fold

O=C(O)C1CNCCN(Cc2cc(=O)n3cccc(O)c3n2)C1 (centres unmarked) [Compound 1]
IC50 (BoNT/A LC [2]): 7400 ± 500 nM
inhibition at 40 µM (BoNT/A LC [3]): > 90%

O=c1cc(CNCc2ccc(-c3ccccc3)cc2)nc2c(O)cccn12 [Compound 27, 2-((([1,1′-biphenyl]-4-ylmethyl)amino)methyl)-9-hydroxy-4H-pyrido [1,2-a]pyrimidin-4-one]
covalent adduct formation by HRMS (in words) (BoNT/A LC WT): Neither of the reversible compounds 2 and 27 showed any change in mass
IC50 ([1]; Homo sapiens, Neuron, 0.5 h): 13000 nM
IC50 (BoNT/A LC [2]): 300 ± 100 nM
Ki (BoNT/A LC [2]): 150 nM
potency compared to 2 (in words) (BoNT/A LC [2]): significantly increased inhibitory potency

O=c1cc(COCc2cccc(F)c2)nc2c(O)cccn12 [Compound 32, 2-(((3-Fluorobenzyl)oxy)methyl)-9-hydroxy-4H-pyrido [1,2-a]pyrimidin-4-one]
protection of SNAP-25 (in words) [1]: nearly complete protection of SNAP-25
IC50 (BoNT/A LC [2]): 11000 ± 1000 nM
less potent than 2 in the enzyme assay (BoNT/A LC [2]): ~10 fold

O=c1cc(CN2CCc3cc(Cl)ccc32)nc2c(O)cccn12 [Compound 47, 2-((5-Chloroindolin-1-yl)methyl)-9-hydroxy-4H-pyrido [1,2-a]pyrimidin-4-one]
protection of SNAP-25 (in words) [1]: protect against SNAP-25 cleavage
IC50 (BoNT/A LC [2]): 900 ± 600 nM

O=C(O)c1ccc2c(c1)N(Cc1cc(=O)n3cccc(O)c3n1)CC2 [Compound 54, 1-((9-Hydroxy-4-oxo-4H-pyrido [1,2-a]pyrimidin-2-yl)methyl)indoline-6-carboxylic acid]
protection of SNAP-25 (in words) [1]: protect against SNAP-25 cleavage
IC50 (BoNT/A LC [2]): 1200 ± 100 nM

O=c1cc(COCc2cccc(Cl)c2)nc2c(O)cccn12 [Compound 35, 2-(((3-Chlorobenzyl)oxy)methyl)-9-hydroxy-4H-pyrido [1,2-a]pyrimidin-4-one]
inhibition of SNAP-25 cleavage (in words) [1]: did not have any apparent effect on SNAP-25 cleavage
IC50 (BoNT/A LC [2]): 7500 ± 500 nM

CS(=O)(=O)SCCCCCc1ccn2c(=O)cc(CNCc3ccc(-c4ccccc4)cc3)nc2c1O [Compound 82, S-(6-(2-((([1,1′-biphenyl]-4-ylmethyl)amino)methyl)-9-hydroxy-4-oxo-4H-pyrido [1,2-a]pyrimidin-8-yl)pentyl) methanesulfonothioate]
covalent adduct formation by HRMS (in words) (BoNT/A LC WT): an increase in mass matching two covalent adducts
Ki (BoNT/A LC [4]): 1870 ± 110 nM
kinact (BoNT/A LC [4]): 0.0024 ± 0.0002 s⁻¹
kinact/KI (BoNT/A LC [4]): 1260 ± 130 M⁻¹ s⁻¹

O=c1cc(CNCc2cccc(Cl)c2)nc2c(O)cccn12 [Compound 18, 2-(((3-Chlorobenzyl)amino)methyl)-9-hydroxy-4H-pyrido [1,2-a]pyrimidin-4-one]
inhibition of SNAP-25 cleavage (in words) [1]: neither 2 nor 18 inhibited the cleavage of SNAP-25
IC50 (BoNT/A LC [2]): 1700 ± 300 nM

Reference: paper PMC10001950 (International Journal of Molecular Sciences, 2023)
